For test [1], the system named is MCF7. Put plainly: Antiproliferative activity against human MCF7 cells assessed as cell growth inhibition incubated for 4 hrs by MTT assay. The settings on record: MCF7, 4 h.
Test [2] concerns HepG2. Put plainly: Antiproliferative activity against human HepG2 cells assessed as cell growth inhibition incubated for 4 hrs by MTT assay. Particulars: HepG2, 4 h. In general terms: Tetrazolium assays rely on reduction of a dye to a coloured formazan, in cell work by metabolically active cells.
In test [3] the test system is Hepatocyte. Kind of test: Cytotoxicity against rat hepatocytes assessed as reduction in cell growth for 4 hrs by MTT assay.
For test [4], the system named is HepG2. Kind of test: Cell cycle arrest in human HepG2 cells assessed as accumulation at sub G1 phase at 5.4 uM incubated for 24 hrs by DNA flow cytometric assay (reference value: 1.53 +/- 0.21%). Format: functional.
The subject of test [5] is HepG2. Kind of test: Cell cycle arrest in human HepG2 cells assessed as accumulation at G1 phase at 5.4 uM incubated for 24 hrs by DNA flow cytometric assay (reference value: 66.40 +/- 3.21%). It counts as functional.
In test [6] the test system is HepG2. Kind of test: Cell cycle arrest in human HepG2 cells assessed as accumulation at S phase at 5.4 uM incubated for 24 hrs by DNA flow cytometric assay (reference value: 19.52 +/- 1.55%). Format: functional.
Test [7] deals with HepG2. Put plainly: Cell cycle arrest in human HepG2 cells assessed as accumulation at G2/M phase at 5.4 uM incubated for 24 hrs by DNA flow cytometric assay (reference value: 12.53 +/- 1.48%). Format: functional.
Test [8] concerns HepG2. Put plainly: Induction of apoptosis in human HepG2 cells assessed as viable cells at 5.4 uM incubated for 24 hrs by annexinV-FITC/propidium iodide staining based flow cytometry (reference value: 92.54 +/- 1.64 %). It counts as functional. Particulars: read-out: Activity. On the technique in general: A flow cytometer gives signals particle by particle.
Test [9] relates to HepG2. Put plainly: Induction of apoptosis in human HepG2 cells assessed as early apoptotic cells at 5.4 uM incubated for 24 hrs by annexinV-FITC/propidium iodide staining based flow cytometry (reference value: 7.22 +/- 0.64 %). It counts as functional.
In test [10] the test system is HepG2. Kind of test: Induction of apoptosis in human HepG2 cells assessed as late apoptotic cells at 5.4 uM incubated for 24 hrs by annexinV-FITC/propidium iodide staining based flow cytometry (reference value: 0.13 +/- 0.01%). Format: functional.
Test [11] has as its system HepG2. Kind of test: Induction of apoptosis in human HepG2 cells assessed as necrotic cells at 5.4 uM incubated for 24 hrs by annexinV-FITC/propidium iodide staining based flow cytometry (reference value: 0.07 +/- 0.01 %). It counts as functional.

Molecules are shown by their SMILES. pIC50: −log10 of the molar value.

With `Cc1ccccc1NC(=O)c1ccc(NC(=O)CSc2nc3ccccc3n3cnnc23)cc1`, the pIC50 in test [1] is 4.42; in test [2], 4.50.

In the case of `O=C(Cn1c(=O)c2nncn2c2ccccc21)Nc1ccc(C(=O)NNC(=O)c2ccc([N+](=O)[O-])cc2)cc1`, the negative logarithm of the IC50 (pIC50) in test [1] is 4.51; in test [2], 4.71.

For the compound `Cc1cccc(C)c1NC(=O)c1ccc(NC(=O)Cn2c(=O)c3nncn3c3ccccc32)cc1`, the negative-log IC50 (pIC50) in test [1] was 4.67; in test [2], 4.76.

Regarding `Cc1cccc(NC(=O)c2ccc(NC(=O)Cn3c(=O)c4nncn4c4ccccc43)cc2)c1`, the pIC50 in test [1] was 4.99; in test [2], 5.19.

Regarding `O=C(Cn1c(=O)c2nncn2c2ccccc21)Nc1ccc(C(=O)NNC(=O)c2ccccc2)cc1`, the pIC50 was 4.63 in test [1] and 4.81 in [2].

For `O=C(CSc1nc2ccccc2n2cnnc12)Nc1ccc(C(=O)NNC(=O)c2ccc([N+](=O)[O-])cc2)cc1`, the figures for the negative-log IC50 (pIC50) in test [1] and in [2] were 4.14 and 4.28, respectively.

As to `O=C(CSc1nc2ccccc2n2cnnc12)Nc1ccc(C(=O)Nc2ccc(Cl)cn2)cc1`, the pIC50 is 4.91 in test [1] and 5.08 in [2].

As for `O=C(Cn1c(=O)c2nncn2c2ccccc21)Nc1ccc(C(=O)Nc2ccc(Cl)cn2)cc1`, the pIC50 in [1] is 4.15; in [2], 4.32.

For `O=C(CSc1nc2ccccc2n2cnnc12)Nc1ccc(C(=O)NNc2ccccc2)cc1`, the pIC50 in test [1] is 4.23; in test [2], 4.42.

Regarding `O=C(Cn1c(=O)c2nncn2c2ccccc21)Nc1ccc(C(=O)NCc2ccccc2)cc1`, the pIC50 in test [1] was 5.01; in test [2], 5.10.

As to `O=C(CSc1nc2ccccc2n2cnnc12)Nc1ccc(C(=O)Nc2ccc([N+](=O)[O-])cc2)cc1`, the pIC50 in [1] was 4.21; in test [2], 4.37.

Consider `O=C(CSc1nc2ccccc2n2cnnc12)Nc1ccc(C(=O)Nc2ccccc2)cc1`, for which the negative logarithm of the IC50 (pIC50) in [1] is 5.09; in [2], 5.27; in test [3], 4.50. Besides, the Activity in [4] worked out at 1.32%; in [5] it was 42.55%; in [6], 30.12%; in test [7], 25.99%; in [9], 30.27%; in [10], 0.22%. Further, the Activity in [11] is recorded as 0.14%. The viability at 5.4 µM in [8] amounted to 69.4%.

For `CNC(=O)c1cc(Oc2ccc(NC(=O)Nc3ccc(Cl)c(C(F)(F)F)c3)cc2)ccn1` [SORAFENIB], the figures for the negative-log IC50 (pIC50) in test [2] and in [3] were 5.66 and 4.78, respectively.

With `O=C(CSc1nc2ccccc2n2cnnc12)Nc1ccc(C(=O)NC2CCCCC2)cc1`, the negative-log IC50 (pIC50) in test [1] is 4.16; in [2], 4.19.

With `O=C(CSc1nc2ccccc2n2cnnc12)Nc1ccc(C(=O)NCc2ccccc2)cc1`, the pIC50 in test [1] is 4.28; in test [2] it was 4.36.

Regarding `O=C(Cn1c(=O)c2nncn2c2ccccc21)Nc1ccc(C(=O)Nc2ccc([N+](=O)[O-])cc2)cc1`, the pIC50 in [1] is 4.29; in [2] it was 4.37.

Take `O=C(Cn1c(=O)c2nncn2c2ccccc21)Nc1ccc(C(=O)NC2CCCCC2)cc1`: the negative-log IC50 (pIC50) was 4.39 in test [1] and 4.62 in test [2].

Take `O=C(CSc1nc2ccccc2n2cnnc12)Nc1ccc(C(=O)NNC(=O)c2ccccc2)cc1`: the negative-log IC50 (pIC50) in test [1] is 4.24; in test [2] it was 4.38.

As for `Cc1cccc(NC(=O)c2ccc(NC(=O)CSc3nc4ccccc4n4cnnc34)cc2)c1`, the negative logarithm of the IC50 (pIC50) in test [1] is 4.33; in [2] it was 4.63.

On to `O=C(CSc1nc2ccccc2n2cnnc12)Nc1ccc(C(=O)Nc2ccccn2)cc1`, for which the negative-log IC50 (pIC50) in [1] was 4.26; in test [2] it was 4.29.

On to `Cc1cccc(C)c1NC(=O)c1ccc(NC(=O)CSc2nc3ccccc3n3cnnc23)cc1`, for which the values for the negative logarithm of the IC50 (pIC50) in test [1] and in [2] were 4.16 and 4.27, respectively.

In the case of `O=C(Cn1c(=O)c2nncn2c2ccccc21)Nc1ccc(C(=O)Nc2ccccc2)cc1`, the figures for the pIC50 in test [1] and in test [2] were 4.17 and 4.24, respectively.

Broadly, the pIC50 is the negative decadic logarithm of the IC50, by convention in mol/L.

The record behind these values is ChEMBL document CHEMBL4808252, “Identification of new [1,2,4]triazolo[4,3-a]quinoxalines as potent VEGFR-2 tyrosine kinase inhibitors: Design, synthesis, anticancer evaluation, and in silico studies” (Bioorg Med Chem, 2021).
